For this series the following is noted: human.

Structures can show the parent of a compound that is named as a salt. Numbered stars: 1 amine (or outer) side, 2 acyl side, 3 side chain; on linkers, the order of the positions; unused ones are H or OH. Bridge positions count the residues as written; N and C are the ends. Square brackets hold non-standard residues; d marks the D form. Peptide text beside a SMILES is read from it. * marks the point of attachment. hTyr(3S-OH,4S-OH,3'-OSO3H) = N[C@H](C(=O)O)[C@H](O)[C@@H](O)c1ccc(O)c(OS(=O)(=O)O)c1; Orn(4R-OH,5R-OH) = O=C([C@H](C[C@@H](O)[C@@H](O)N[*:3])N[*:1])[*:2]; Pro(3S-OH,4S-Me) = C[C@H]1CN[C@H](C(=O)O)[C@H]1O; X1 = CCCCCOc1ccc(-c2cc(-c3ccc(C(=O)*)cc3)no2)cc1; Gln(3R-OH) = NC(=O)C[C@@H](O)[C@H](N)C(=O)O; Hyp = O=C(O)[C@@H]1C[C@@H](O)CN1

As for `CC1(C)O[C@@H]2[C@@H](CO[C@@]3(COS(N)(=O)=O)OC(C)(C)O[C@@H]23)O1` [topiramate], the “Adverse Event Seriousness” value was 11.28, the Outcome is 11.96, the ROR was 4.29 and the RxScore was 47.54.
On to `CC[C@H]1OC(=O)[C@H](C)[C@@H](O[C@H]2C[C@@](C)(OC)[C@@H](O)[C@H](C)O2)[C@H](C)[C@@H](O[C@@H]2O[C@H](C)C[C@H](N(C)C)[C@H]2O)[C@](C)(O)C[C@@H](C)CN(C)[C@H](C)[C@@H](O)[C@]1(C)O` [azithromycin], for which the ROR was determined as 13.60.
`O=C1CCCC(=O)C1C(=O)c1ccc(C(F)(F)F)cc1[N+](=O)[O-]` [nitisinone]: the “Adverse Event Seriousness” value came out at 15.20, the Outcome turned out to be 23.09, the ROR came to 5.32 and the RxScore is given as 74.78.
In turn, `CCCCCC(=O)O[C@]1(C(C)=O)CC[C@H]2[C@@H]3CCC4=CC(=O)CC[C@]4(C)[C@H]3CC[C@@]21C` [hydroxyprogesterone caproate] showed an ROR of 12.09.
As for `CN(C)CCC=C1c2ccccc2C=Cc2ccccc21` [cyclobenzaprine hydrochloride], the “Adverse Event Seriousness” value came to 12.25, the Outcome is 22.45, the ROR amounted to 6.09 and the RxScore is 72.46.
`Nc1cccc2c1C(=O)N(C1CCC(=O)NC1=O)C2=O` (stereo not drawn) [pomalidomide]: the Outcome was determined as 25.31.
Regarding `[N]=O` [nitric oxide], the “Adverse Event Seriousness” value stood at 19.58.
Take `CC(C)(N)Cc1ccccc1` [phentermine]: the ROR was 12.22.
As for `C=CC(N)CCC(=O)O` (stereo not drawn) [vigabatrin], the “Adverse Event Seriousness” value is listed as 13.32, the Outcome was 13.81, the ROR is on record as 4.80 and the RxScore worked out at 51.42.
As for `NCC1(CC(=O)O)CCCCC1` [gabapentin], the “Adverse Event Seriousness” value was 9.67, the Outcome came to 11.51, the ROR amounted to 2.86 and the RxScore stood at 43.00.
As to `CCCC(CCC)C(=O)O` [valproic acid], the “Adverse Event Seriousness” value is recorded as 12.54, the Outcome was 16.41, the ROR is on record as 5.34 and the RxScore turned out to be 54.78.
Taken in the same sequence, the figures for `CCC1(c2ccccc2)C(=O)NCNC1=O` [primidone] were 8.70, 10.86, 3.59 and 42.07.
Consider `CN1C(=O)C(O)N=C(c2ccccc2)c2cc(Cl)ccc21` (stereo not drawn) [temazepam], for which the “Adverse Event Seriousness” value is given as 12.79, the Outcome turned out to be 22.08, the ROR amounted to 5.17 and the RxScore worked out at 72.69.
With `C=C[C@]1(C)C[C@@H](OC(=O)CS[C@@H]2C[C@H]3CC[C@@H](C2)N3C)[C@]2(C)[C@H](C)CC[C@]3(CCC(=O)[C@H]32)[C@@H](C)[C@@H]1O` [retapamulin], the ROR turned out to be 12.35.
As to `Nc1nnc(-c2cccc(Cl)c2Cl)c(N)n1` [lamotrigine], the “Adverse Event Seriousness” value came to 8.89, the Outcome was found to be 10.41, the ROR worked out at 3.57 and the RxScore came to 42.04.
Taken in the same sequence, the figures for `CCCC(CCC)C(=O)O` [divalproex sodium] were 8.51, 11.14, 3.85 and 41.09.
As for `NCCC(O)(P(=O)(O)O)P(=O)(O)O` [pamidronate disodium], the “Adverse Event Seriousness” value turned out to be 12.75, the Outcome came to 6.73, the ROR was found to be 11.49 and the RxScore is 51.86.
For `CC(=O)O[C@]1(C(C)=O)CC[C@H]2[C@@H]3C[C@H](C)C4=CC(=O)CC[C@]4(C)[C@H]3CC[C@@]21C` [medroxyprogesterone acetate], the “Adverse Event Seriousness” value is recorded as 19.89 and the ROR was determined as 12.89.
Consider `O=P(O)(O)C(O)(Cn1ccnc1)P(=O)(O)O` [zoledronic acid (Zometa), zoledronic acid], for which the “Adverse Event Seriousness” value came to 14.61, the Outcome was found to be 7.55, the ROR came to 10.08 and the RxScore worked out at 53.50.
With `O=C1CCC(N2C(=O)c3ccccc3C2=O)C(=O)N1` (stereo not drawn) [thalidomide], the “Adverse Event Seriousness” value is given as 17.30 and the Outcome came out at 22.64.
In the case of `C[C@]12CC[C@@H]3c4ccc(O)cc4CC[C@H]3[C@@H]1CC[C@@H]2O` [estradiol], the “Adverse Event Seriousness” value was 20.16 and the ROR was found to be 13.26.
With `CC(OC(=O)NCC1(CC(=O)O)CCCCC1)OC(=O)C(C)C` (stereo not drawn) [gabapentin enacarbil], the “Adverse Event Seriousness” value was 4.67, the Outcome stood at 7.53, the ROR came to 2.64 and the RxScore is 42.19.
Taken in the same sequence, the figures for `C[C@H]1[C@H](NC(=O)/C(=N\OC(C)(C)C(=O)O)c2csc(N)n2)C(=O)N1S(=O)(=O)O` [aztreonam] were 14.58, 22.41, 5.83 and 75.34.
As for `CC(C)C[C@H](NC(=O)[C@H](CCc1ccccc1)NC(=O)CN1CCOCC1)C(=O)N[C@@H](Cc1ccccc1)C(=O)N[C@@H](CC(C)C)C(=O)[C@@]1(C)CO1` [carfilzomib], the Outcome was determined as 22.81.
Consider `O=C1NC(=O)C(c2ccccc2)(c2ccccc2)N1` [phenytoin sodium], for which the “Adverse Event Seriousness” value is 8.38, the Outcome worked out at 12.65, the ROR is given as 5.12 and the RxScore is 44.47.
Taken in the same sequence, the figures for `N#Cc1ccccc1-c1cc(-c2ccccn2)cn(-c2ccccc2)c1=O` [perampanel] were 7.92, 14.67, 3.53 and 47.40.
For `CC(C)C[C@H](CN)CC(=O)O` [pregabalin] the same measures were 7.13, 8.25, 2.21 and 36.30.
Compound `CCCCCOc1ccc(-c2cc(-c3ccc(C(=O)N[C@H]4C[C@@H](O)[C@@H](O)NC(=O)[C@@H]5[C@@H](O)[C@@H](C)CN5C(=O)[C@H]([C@H](O)CC(N)=O)NC(=O)[C@H]([C@H](O)[C@@H](O)c5ccc(O)c(OS(=O)(=O)O)c5)NC(=O)[C@@H]5C[C@@H](O)CN5C(=O)[C@H]([C@@H](C)O)NC4=O)cc3)no2)cc1` [micafungin sodium] (X1-[Orn(4R-OH,5R-OH)]T[Hyp][hTyr(3S-OH,4S-OH,3'-OSO3H)][Gln(3R-OH)][Pro(3S-OH,4S-Me)]; lactam 1-C) displayed an Outcome of 22.48.
As for `CCCCCN(C)CCC(O)(P(=O)(O)O)P(=O)(O)O` [ibandronate sodium], the “Adverse Event Seriousness” value is recorded as 10.42, the Outcome was found to be 13.02, the ROR is 3.13 and the RxScore was 45.79.
For `CN[C@@H](C)Cc1ccccc1` [methamphetamine hydrochloride] the same measures were 15.73, 20.20, 12.29 and 78.80.

Values taken from patent US20140358576A1, “SYSTEM AND METHOD FOR SURVEILLANCE AND EVALUATION OF SAFETY RISKS ASSOCIATED WITH MEDICAL INTERVENTIONS” (Adverse Events, Inc., priority 2013, published 2014).
